Reference: article PMC10976160, “Comparative Pharmacokinetics Research of 13 Bioactive Components of Jieyu Pills in Control and Attention Deficit Hyperactivity Disorder Model Rats Based on UPLC-Orbitrap Fusion MS” (Molecules, 2024)
Read-outs that look alike come from different tables or passages of the source.

Test: Pharmacokinetics in control rats after gavage of JYPs
Type: in vivo, Sprague Dawley (SD) rats
Settings: for half-life / Tmax / AUC(0-inf) / AUC(0-t) / Cmax / MRT inf / MRT last: male, rat, plasma; for Tmax: po; for MRT inf: read-out: MRT(0-∞); for MRT last: read-out: MRT(0-t)
Text: According to the established method for the analysis of serum biological samples, the pharmacokinetics of various components of rat serum were investigated after the administration of different dosages of JYPs to control rats.
For the control experiment, healthy male Sprague Dawley (SD) rats of SPF grade ([…] ± 20 g) were purchased from Sipeifu (Beijing) Biotechnology Co., Ltd. (Beijing, China), Animal Quality Certificate No. 110324220102348616. For the ADHD model rats, healthy male SHR rats of SPF grade, weighing 220 ± 20 g, were purchased from SBF (Beijing) Biotechnology Co., Ltd. (Beijing, China), License No. SCXK (Yu) 2019-0010. The animals were accommodated in the Animal Center of Henan University of Traditional Chinese Medicine, which successfully underwent an ethical audit with ethics number DWLL202208003. The animals were bred under controlled conditions at a temperature of 24 °C and a relative humidity of 50 ± 2%. Before the experiment, the animals abstained from eating for 12 h and had unrestricted access to water. The feeding and experimental research conducted on the experimental animals adhered to the laws outlined in the Management of Experimental Animals in Henan Province.
JYPs were ground into a fine powder and sieved through 60-mesh sieves; then, 20 g of fine JYP powder was taken, having been weighed precisely. A precise volume of 50 mL of pure water was added and mixed well to prepare a 0.4 g/mL suspension solution of JYPs, which was then stored in the refrigerator at 4 °C.
This study involved 24 healthy male SD rats with a body mass of 220 ± 20 g and 24 healthy male ADHD rats with a body mass of 220 ± 20 g. Subjects abstained from food for a duration of 12 h before the experiment and consumed water without restriction. Both kinds of rats were randomly divided into four groups: a blank group, given an equal dose of water intragastrically, and 3 different administration groups: rats given the equivalent human dose of JYPs by gavage in doses of 1.080 g/kg/d, 2.160 g/kg/d, and 4.320 g/kg/d. Tail vein blood was collected at 0.083, 0.25, 0.5, 0.75, 1, 1.5, 2, 3, 4, 6, 8, 12, 18, and 24 h after dosing. About 0.5 mL of blood was collected in sodium heparin centrifugal tubes, then centrifuged at 4 °C for 10 min at a speed of 3500r/min. We took the upper layer and placed it at −80 °C for preservation.
We took 200 μL of plasma, added 600 μL of methanol solution and 50 μL of internal standard (100 ng/mL), and subjected it to shaking for 5 min, followed by centrifugation at 4 °C at 12,000 r/min for 10 min. The supernatant was collected and allowed to dry, then reconstituted with 50 μL of 50% methanol and centrifuged at 4 °C at 14,000 r/min for a further 10 min. The supernatant after this process was taken as the test solution. A volume of 5 μL was used for UPLC-MS analysis. The drug concentration in plasma was calculated with the aid of the internal standard.
Chromatographic conditions: Hypersil GOLD (100 × 2.1 mm, 1.9 μm) column; column temperature 35 °C; mobile phase acetonitrile (A)/0.1% formic acid aqueous solution (B); gradient elution; gradient elution program: 0–0.5 min (95% B–95% B), 0.5–8 min (95% B–50% B), 8–14 min (50% B–20% B), 14–20 min (20% B–5% B), 20–22 min (5% B–5% B), 22–25 min (95% B–95% B); flow rate 0.2 mL/min; injection volume 5 μL.

[1] = Sprague Dawley, oral JYPs, range over compounds and doses, read-out: half-life (t1/2)
[2] = Sprague Dawley, oral JYPs, read-out: peak time (Tmax)
[3] = Sprague-Dawley, 1.08 g/kg/day, oral JYPs low dose 1.080 g/kg/d (1st of 3 values)
[4] = Sprague-Dawley, 1.08 g/kg/day, oral JYPs low dose 1.080 g/kg/d (1st of 3 values), read-out: t1/2 (converted)
[5] = Sprague-Dawley, 2.16 g/kg/day, oral JYPs medium dose 2.160 g/kg/d (2nd of 3 values)
[6] = Sprague-Dawley, 2.16 g/kg/day, oral JYPs medium dose 2.160 g/kg/d (2nd of 3 values), read-out: t1/2 (converted)
[7] = Sprague-Dawley, 4.32 g/kg/day, oral JYPs high dose 4.320 g/kg/d (3rd of 3 values)
[8] = Sprague-Dawley, 4.32 g/kg/day, oral JYPs high dose 4.320 g/kg/d (3rd of 3 values), read-out: t1/2 (converted)
[9] = Sprague-Dawley, 1.08 g/kg/day, oral JYPs low dose 1.080 g/kg/d (1st of 3 values), read-out: Tmax
[10] = Sprague-Dawley, 2.16 g/kg/day, oral JYPs medium dose 2.160 g/kg/d (2nd of 3 values), read-out: Tmax
[11] = oral JYPs high dose 4.320 g/kg/d (3rd of 3 values)
[12] = oral JYPs low dose 1.080 g/kg/d (1st of 3 values)
[13] = oral JYPs medium dose 2.160 g/kg/d (2nd of 3 values)
[14] = Sprague-Dawley, 4.32 g/kg/day, oral JYPs high dose 4.320 g/kg/d (3rd of 3 values), read-out: Tmax

half-life [1] [h] | Tmax [2] [h] | AUC(0-inf) [3] [ng·h/mL] | AUC(0-t) [3] [ng·h/mL] | Cmax [3] [ng/mL] | MRT inf [3] [h] | half-life [4] [h] | AUC(0-t) [5] [ng·h/mL] | Cmax [5] [ng/mL] | MRT last [5] [h] | MRT inf [5] [h] | half-life [6] [h] | AUC(0-inf) [7] [ng·h/mL] | AUC(0-t) [7] [ng·h/mL] | Cmax [7] [ng/mL] | MRT last [7] [h] | MRT inf [7] [h] | half-life [8] [h] | Tmax [9] [h] | Tmax [10] [h] | Compound | also measured
7.52 to 13.7 | < 1 | 135 ± 49.8 | 120 ± 40.6 | 38.9 ± 10.4 | 9.57 ± 3.88 | 7.52 ± 2.66 | 149 ± 49.5 | 47.4 ± 11.7 | 6.42 ± 0.6 | 13.3 ± 9.41 | 10.8 ± 9.21 | 245 ± 44.7 | 221 ± 42.5 | 67.4 ± 14.2 | 6.07 ± 1.19 | 9.11 ± 3.69 | 7.8 ± 3.3 | 0.53 ± 0.22 | 0.39 ± 0.17 | C[C@H]1O[C@@H](O[C@H]2CC[C@@]3(C)[C@@H](CC[C@]4(C)[C@@H]3C=C[C@]35OC[C@@]6(CCC(C)(C)C[C@H]63)[C@@H](O)C[C@]54C)[C@]2(C)CO)[C@H](O)[C@@H](O[C@@H]2O[C@H](CO)[C@@H](O)[C@H](O)[C@H]2O)[C@H]1O [Saikosaponin A] | AUMC(0-t) [11]: 1333.05± 317.31 ng/mL*(h)²; AUMC(0-ꝏ) [11]: 2265.45± 1085.76 ng/mL*(h)²; Clearances [11]: 4464.90 ± 760.17 mL/h; AUMC(0-t) [12]: 792.28± 390.55 ng/mL*(h)²; AUMC(0-ꝏ) [12]: 1355.37± 1006.84 ng/mL*(h)²; MRT(0-t) [12]: 6.55 ± 1.64 h; Vss [12]: 21125.87 ± 12315.99 mL; AUC(0-∞) [13]: 177.04 ± 46.52 ng·h/mL; AUMC(0-t) [13]: 935.87± 261.97 ng/mL*(h)²; AUMC(0-ꝏ) [13]: 2307.92± 1659.75 ng/mL*(h)²; Clearances [13]: 3201.17 ± 894.28 mL/h; Vss [13]: 42581.43 ± 30523.07 mL
7.52 to 13.7 | < 1 | 97.3 ± 56.5 | 79.6 ± 44.6 | 21.5 ± 5.52 | 13.4 ± 4.81 | 11.4 ± 4.14 | 96.8 ± 29.3 | 30.1 ± 6.87 | 6.87 ± 0.65 | 13.3 ± 6.43 | 10.9 ± 6.69 | 157 ± 34.9 | 116 ± 12.3 | 41.8 ± 17.7 | 7.1 ± 1.12 | 16.6 ± 6.52 | 13.7 ± 5.61 | 0.43 ± 0.23 | 0.54 ± 0.1 | C[C@H]1O[C@@H](O[C@H]2CC[C@@]3(C)[C@@H](CC[C@]4(C)[C@@H]3C=C[C@]35OC[C@@]6(CCC(C)(C)C[C@H]63)[C@H](O)C[C@]54C)[C@]2(C)CO)[C@H](O)[C@@H](O[C@@H]2O[C@H](CO)[C@@H](O)[C@H](O)[C@H]2O)[C@H]1O [Saikosaponin D] | MRT last [3]: 7.08 ± 1.57 h; AUC(0-inf) [5]: 117 ± 33.2 ng·h/mL; Tmax [14]: 0.33 ± 0.13 h; AUMC(0-t) [11]: 830.12± 197.07 ng/mL*(h)²; AUMC(0-ꝏ) [11]: 2785.93± 1472.47 ng/mL*(h)²; Vss [11]: 68432.42 ± 15413.77 mL; AUMC(0-t) [12]: 592.40± 473.29 ng/mL*(h)²; AUMC(0-ꝏ) [12]: 1331.60± 1006.07 ng/mL*(h)²; Clearances [12]: 2081.51 ± 796.95 mL/h; Vss [12]: 27762.67 ± 16738.07 mL; AUMC(0-t) [13]: 662.12± 211.50 ng/mL*(h)²; AUMC(0-ꝏ) [13]: 1586.66± 988.85 ng/mL*(h)²; Vss [13]: 41378.73 ± 24017.48 mL
14.4 to 24 | < 2 | 40.8 ± 9.33 | 28.7 ± 8.22 | 3.37 ± 1.11 | 20.4 ± 8.24 | 15.4 ± 5.99 | 32.7 ± 6.04 | 4.47 ± 1.9 | 8.96 ± 0.63 | 32 ± 20.9 | 24 ± 16.9 | 53.4 ± 9.38 | 36.5 ± 7.42 | 5.27 ± 1.27 | 8.76 ± 0.37 | 21.6 ± 6.2 | 16.4 ± 5.4 | 1.67 ± 0.52 | 1.17 ± 0.41 | CCC/C=C1\OC(=O)C2=C1CCC=C2 [Z-Ligustilide] | MRT last [3]: 8.54 ± 1.12 h; AUC(0-inf) [5]: 58.6 ± 20.7 ng·h/mL; Tmax [14]: 1.13 ± 0.44 h; AUMC(0-t) [11]: 319.41± 64.35 ng/mL*(h)²; AUMC(0-ꝏ) [11]: 1163.41± 438.24 ng/mL*(h)²; AUMC(0-t) [12]: 244.45± 72.75 ng/mL*(h)²; AUMC(0-ꝏ) [12]: 839.61± 369.47 ng/mL*(h)²; AUMC(0-t) [13]: 291.74± 50.18 ng/mL*(h)²; AUMC(0-ꝏ) [13]: 2206.47± 2197.92 ng/mL*(h)²
